Assay results from patent US10172947B2, “Antiparasitic and/or antifungal composition comprising hydrophobised chitosan” (CENTRE NATIONAL DE LA RECHERCHE SCIENTIFIQUE (CNRS), priority 2013, dated 2019).
In brackets after ≈: the same amount, converted by molar mass.

Tests used:
Format in all cases: cell-based
[1] = test system: Leishmania braziliensis axenic amastigotes; experiment: In vitro evaluation on axenic amastigotes (resazurin); details: 72 h
Description: (§1) The compositions 5a (PIBCA-[chitosan20/chitosan20-TBA] 100/0 m/m %) and 4 (MC3+α-cyclodextrin 1/10% m/v), described in point 3 hereinabove, have been tested in vitro on three strains of Leishmania: Leishmania major (MHOM/SU/73/5-ASKH/LEM134), Leishmania tropica (LRC-L39/LEM2563), Leishmania braziliensis (MHOM/BR/75/M2903b). The IC50 were measured then compared to the reference product amphotericin B in order to determine the anti-leishmanial activity of the nanoparticles.
(§2) The culture of the axenic amastigotes was carried out at 37° C. in a complete M199 medium supplemented with 200 μM CaCl2 and 200 μM MgCl2.
(§3) Axenic amastigotes were induced by incubating promastigotes in complete M199 medium supplemented with 200 μM of CaCl2 and 200 μM MgCl2 at 37° C. with 5% CO2 for 48 h. Serial two-fold dilutions of the compositions were then carried out in 100 μl of the same medium in 96-well plates. The axenic amastigotes were then added in each well at 10^6/ml in 200 μl of final. volume After 72 h of incubation at 37° C. with 5% CO2, 20 μl of resazurin at 450 μM were added in each well, then incubated in the dark for 24 h at 37° C. with 5% CO2. In living cells, resazurin is reduced in resofurin. This conversion is monitored by measuring the absorbance at specific wavelengths of the resofurin (570 nm) and of the resazurin (600 nm) by using a microplate reader (Labsystem Multisken MS). The activity of the compositions is expressed in IC50. Amphotericin B is used as a reference product.

[2] = test system: Leishmania major axenic amastigotes; experiment: as above; details: 72 h
Description: as §1, §2, §3

[3] = test system: Leishmania tropica axenic amastigotes; experiment: as above; details: 72 h
Description: as §1, §2, §3

[4] = test system: Leishmania tropica intramacrophagic amastigotes; experiment: In vitro evaluation on intramacrophagic amastigotes (RAW 264.7, Sybr Green); details: 48 h of treatment
Description: as §1
(§4) The macrophages RAW 264.7 were maintained at 37° C. with 5% CO2 in DMEM medium (Dulbecco's modified Eagle's medium, Gibco, Saint-Aubin, France) supplemented with 10% of foetal calf serum, inactivated by heat (Invitrogen, Saint-Aubin, France), also called complete DMEM medium.
(§5) The evaluation of the compositions 5a and 4 on intramacrophagic amastigotes was conducted as previously described (Audisio et al., Eur. J. Med. Chem., 2012, 52, 44-50). The macrophages RAW 264.7 were added in the wells of 96-well plates at a rate of 2×10^4 cells per well and incubated for 24 h at 37° C. with 5% CO2. The axenic amastigotes were then induced as described hereinabove, centrifuged at 2000 g for 10 minutes, then resuspended in a complete DMEM medium, and added to each well at a rate of 3.2×10^5 parasites per well, in order to reach a parasite/macrophage ratio of 16:1. After 24 h of infection at 37° C. with 5% CO2, the extracellular parasites were removed and 100 μl of complete DMEM medium containing the seried dilutions of the compositions were added to each well. After 48 h of treatment, the culture medium is removed, then replaced with 100 μl of DirectPCR Lysis reagent (Euromedex, Souffelweyersheim, France), and three freezing-thawing cycles at ambient temperature are then carried out, then 50 μg/ml of proteinase K are added, and a final incubation at 55° C. for 4 hours is carried out in order to allow for the complete lysis of the cells. […] The fluorescence of the DNA was measured using the Mastercycler® realplex (Eppendorf, Montesson, France). […]

[5] = test system: Leishmania braziliensis intramacrophagic amastigotes; experiment: as above; details: 48 h of treatment
Description: as §1, §4, §5

[6] = test system: Leishmania major intramacrophagic amastigotes; experiment: as above; details: 48 h of treatment
Description: as §1, §4, §5

[7] = test system: Leishmania major promastigotes; experiment: In vitro evaluation on promastigotes (MTT); details: 72 h
Description: as §1
(§6) The promastigote culture was carried out at 26° C. in M199 medium (Sigma, Saint-Quentin Fallavier, France) supplemented with 4.2 mM NaHCO3, 10% of foetal calf serum inactivated by heat (Invitrogen, Saint-Aubin, France), 40 mM Hepes pH 7.5, 100 μM adenosine and 20 μM haemin (complete M199 medium).
(§7) The test of the compositions on prosmatigotes was conducted as previously described (Saint-Pierre-Chazalet et al., J. Antimicrob. Chemother., 2009, 64, 993-1001). Series of dilutions were carried out in 100 μl of complete M199 medium in a 96-well plate. Promastigotes in exponential growth were then added to each well at a rate of 10^6/ml in a final volume of 200 μl. After 72 h of incubation at 26° C., the viability of the promastigotes was measured by using 250 μg/ml of MTT, or 3-(4,5-dimethylthiazol-2-yl)-2,5-diphenyl tetrazolium bromide (Sigma, Saint-Quentin Fallavier, France), which is reduced in formazan, an insoluble product, by the active mitochondria of the living cells. After 4 h of incubation at 26° C., the formazan is then solubilised by adding 100 μl of isopropanol containing 40 mM of HCl in each well, then incubating for 15 minutes under stirring. The viability of the cells was then quantified by measuring the absorbance at 570 nm using a plate reader (Labsystems Multiskan MS). The activity of the compositions is expressed in IC50. Amphotericin B is used as a reference product.

[8] = test system: Leishmania tropica promastigotes; experiment: In vitro evaluation on promastigotes (MTT); details: 72 h
Description: as §1, §6, §7

[9] = test system: Leishmania braziliensis promastigotes; experiment: In vitro evaluation on promastigotes (MTT); details: 72 h
Description: as §1, §6, §7

[10] = test system: Candida albicans; experiment: Activity against Candida albicans, IC50 by microdilution with MTT viability test; details: 24 h at 35° C., molecule alone
Description: The inoculum is prepared by sampling 5 colonies obtained after 24 h of culture on Sabouraud agar medium, each one of at least 1 mm in diameter, and by putting them in suspension in 5 mL of sterile NaCl (0.85%). The turbidity of each suspension is evaluated by measuring the optical density at a wavelength of 530 nm then adjusted with a sterile isotonic solution so as to obtain an absorbance equivalent to that obtained with the turbidimetric standard (Mac Farland 0.5).
This protocol leads to the obtaining of a suspension of which the concentration is between 1×10^6 and 5×10^6 CFU/mL. […]
Measuring the growth of yeasts is carried out by a standard colorimetric technique that makes use of tetrazolium salt MTT (5 mg/mL) (3-(4,5-dimethylthiazol-2-yl)-2,5-diphenyl tetrazolium bromide) with menadione (vitamin K). […] The quantity of precipitate formed is proportional to the quantity of living cells and to the metabolic activity of each cell. It is sufficient therefore after the incubation of the cells with MTT for 1 h at 37° C., to add an agent solubilising the crystals of formazan, to centrifuge the 96-well plates, and to read the optical density of the supernatant. A simple dosage of the optical density at 570 nm by spectroscopy makes it possible to know the relative quantity of living cells. […]

[11] = test system: Trichomonas vaginalis; experiment: Anti Trichomonas vaginalis activity, parasite count after 24 h; details: reference product, MTZ-sensitive strain ATCC PRA-98
Description: Trichomonas vaginalis is axenically cultivated at 35° C. in a trypticase-yeast extract-maltose medium (TYM) (Diamond L. S. et al., J. Parasitol., 1957, 43(4), 488-490) enriched with 10% of decomplemented horse serum (Gibco, France); the strain is subcultured every other day (Camuzat-Dedenis B. et al., Eur. J. Med. Chem., 2001, 36(10), 837-842).
The tubes of culture containing the fresh TYM medium enriched with 10% of horse serum alone (control 1, noted as C1) or those with the compositions tested, are inoculated with the parasite at a rate of 2×10^5 protozoa in 3 mL. The compositions tested are the compositions of PIBCA-[chitosan20/chitosan20-TBA] that have different proportions of chitosan and of thiolated chitosan, namely 100/0, 75/25, 50/50 and 25/75 m/m %. The concentrations in nanoparticles studied are 12.5, 25, 50 and 100 μg/mL.
The results are compared between (i) the nanoparticles of PIBCA/F68; (ii) the solutions comprised of mixtures of PIBCA-[chitosan20/chitosan20-TBA] having different proportions of chitosan and thiolated chitosan, namely 100/0, 75/25, 50/50 and 25/75 m/m %, (iii) the polymerisation medium (control 2, noted as C2). […]
The tubes are incubated for 24 h at 35° C. and the number of parasites per milliliter in each tube is determined microscopically with a haemocytometer (Kova® Glasstic® Slide 10, Hycor Biomedical, United States). […]

C[C@@H]1[C@H](O)[C@@H](C)/C=C/C=C/C=C/C=C/C=C/C=C/C=C/[C@H](O[C@@H]2O[C@H](C)[C@@H](O)[C@H](N)[C@@H]2O)C[C@@H]2O[C@](O)(C[C@@H](O)C[C@@H](O)[C@H](O)CC[C@@H](O)C[C@@H](O)CC(=O)O[C@H]1C)C[C@H](O)[C@H]2C(=O)O [Amphotericin B-DOC, Amphotericin B]
IC50 (ng/μl) ± SEM [1]: 0.055 ± 0.014 ng/µL (≈ 0.0595 µM) | IC50 (ng/μl) ± SEM [2]: 0.038 ± 0.002 ng/µL (≈ 0.0411 µM) | IC50 (ng/μl) ± SEM [3]: 0.049 ± 0.01 ng/µL (≈ 0.053 µM) | IC50 (ng/μl) ± SEM [4]: 0.51 ± 0.07 ng/µL (≈ 0.552 µM) | IC50 (ng/μl) ± SEM [5]: 0.29 ± 0.09 ng/µL (≈ 0.314 µM) | IC50 (ng/μl) ± SEM [6]: 0.49 ± 0.13 ng/µL (≈ 0.53 µM) | IC50 (ng/μl) ± SEM [7]: 0.015 ± 0.004 ng/µL (≈ 0.0162 µM) | IC50 (ng/μl) ± SEM [8]: 0.023 ± 0.002 ng/µL (≈ 0.0249 µM) | IC50 (ng/μl) ± SEM [9]: 0.022 ± 0.005 ng/µL (≈ 0.0238 µM)

N=C(NCCCCCCNC(=N)NC(=N)Nc1ccc(Cl)cc1)NC(=N)Nc1ccc(Cl)cc1.O=C(O)[C@H](O)[C@@H](O)[C@H](O)[C@H](O)CO.O=C(O)[C@H](O)[C@@H](O)[C@H](O)[C@H](O)CO [chlorhexidine digluconate]
IC50 against Candida albicans [10]: 0.00068%

Cc1ncc([N+](=O)[O-])n1CCO [MTZ, metronidazole]
lethal concentration against Trichomonas vaginalis [11]: 7 µg/mL
